Reference: publication PMC5589637, “New perspectives of cobalt tris(bipyridine) system: anti-cancer effect and its collateral sensitivity towards multidrug-resistant (MDR) cancers” (Oncotarget, 2017)

Key:
[1] = test system: C13 (cisplatin-resistant) cells; experiment: MTT cytotoxicity, C13 (cisplatin-resistant); type: cell-based; details: for IC50: C13 (cisplatin-resistant), MTT, 72 h, read-out: IC50 value, cisplatin-resistant cancer, C13; for Resistant Factor, OV2008/C13 pair: C13 (resistant) IC50 over OV2008 (sensitive) IC50
Source text: (§1) All cells were obtained from the American Type Culture Collection (Rockville, MD, USA) unless otherwise specified. Immortalized wild-type and Atg7-deficient mouse embryonic fibroblasts (MEFs) were kindly provided by Professor Masaaki Komatsu (Juntendo University, School of Medicine, Japan). Taxol-resistant types of MCF-7, HCT-8, A549 cancers cells and cisplatin-resistant SGC7901 cancer cells were purchased from KeyGEN BioTECH, China. Cisplatin-sensitive or –resistant A2780, OV2008 and C13 cancer cells were kindly provided by Prof. Benjamin Tsang (Department of Obstetrics and Gynecology and Department of Cellular and Molecular Medicine, University of Ottawa, Canada). HCT116 p53^+/+ and p53^−/− isogenic human colon cancer cells were kindly provided by Professor Bert Vogelstein (Ludwig Center at Johns Hopkins, Howard Hughes Medical Institute, USA). All media were supplemented with 10% fetal bovine serum and antibiotics penicillin (50 U/ml) and streptomycin (50 μg/ml; Invitrogen, Paisley, Scotland, UK). All cell cultures were incubated at 37°C in a 5% humidified CO2 incubator.
(§2) All tested compounds were dissolved in DMSO at a final concentration of 50 mmol/L and stored at −20°C before use. Cytotoxicity was assessed by using the 3-(4,5-dimethylthiazol-2-yl)-2, 5-diphenyltetrazolium bromide (MTT) (5.0 mg/ml) assay as previously described. Briefly, 4×10^3 cells per well were seeded in 96-well plates before drug treatments. After overnight culture, the cells were then exposed to different concentrations of selected compounds ([…]) for 72 hours. Cells without drug treatment were used as control. Subsequently, MTT (10 μL) solution was added to each well and incubated at 37°C for 4 hours followed by the addition of 100 μL solubilization buffer (10%SDS in 0.01 mol/L HCl) and overnight incubation. A570 nm was then determined in each well on the next day. The percentage of cell viability was calculated using the following formula: Cell viability (%) = Atreated/Acontrol × 100. Data were obtained from three independent experiments.

[2] = test system: H1975 (EGFR mutant lung cancer) cells; experiment: MTT cytotoxicity assay, H1975; type: cell-based; details: 72 h
Procedure: as §2

[3] = test system: HCT-8 taxol-resistant cancer cells; experiment: MTT cytotoxicity, taxol-resistant HCT-8; type: cell-based; details: for IC50: HCT-8 taxol-resistant, MTT, 72 h; for Resistant Factor, HCT-8: IC50 of taxol-resistant cells over IC50 of taxol-sensitive cells
Source text: as §1, §2

[4] = test system: LLC-1 (mouse lung cancer) cells; experiment: MTT cytotoxicity assay, LLC-1; type: cell-based; details: LLC-1, MTT, 72 h
Procedure: as §2

[5] = test system: HeLa (cervical cancer) cells; experiment: MTT cytotoxicity assay, HeLa; type: cell-based; details: 72 h
Procedure: as §2

[6] = test system: normal human LO2 hepatocytes; experiment: MTT cytotoxicity assay, LO2; type: cell-based; details: 72 h
Procedure: as §2

[7] = test system: A549 taxol-sensitive cancer cells; experiment: MTT cytotoxicity, taxol-sensitive A549; type: cell-based; details: 72 h
Source text: as §1, §2

[8] = test system: SGC-7901 cisplatin-resistant cancer cells; experiment: MTT cytotoxicity, cisplatin-resistant SGC-7901; type: cell-based; details: for IC50: SGC-7901 cisplatin-resistant, MTT, 72 h; for Resistant Factor, SGC-7901: cisplatin-resistant over cisplatin-sensitive IC50, SGC-7901
Source text: as §1, §2

[9] = test system: MCF-7 taxol-resistant cancer cells; experiment: MTT cytotoxicity, taxol-resistant MCF-7; type: cell-based; details: for Resistant Factor, MCF-7: IC50 of taxol-resistant cells over IC50 of taxol-sensitive cells; for IC50: MCF-7 taxol-resistant, MTT, 72 h
Source text: as §1, §2

[10] = test system: A549 (EGFR wild-type lung cancer) cells; experiment: MTT cytotoxicity assay, A549; type: cell-based; details: 72 h
Procedure: as §2

[11] = test system: A549 taxol-resistant cancer cells; experiment: MTT cytotoxicity, taxol-resistant A549; type: cell-based; details: for IC50: A549 taxol-resistant, MTT, 72 h; for Resistant Factor, A549: IC50 of taxol-resistant cells over IC50 of taxol-sensitive cells
Source text: as §1, §2

[12] = test system: HCT116 p53^-/- colon cancer cells; experiment: MTT cytotoxicity, HCT116 p53-/-; type: cell-based, human; details: for IC50: HCT116 p53-/-, MTT, 72 h; for Resistant Factor, HCT116 p53-/- vs p53+/+: IC50 p53-/- over IC50 p53+/+
Source text: as §1, §2

[13] = test system: A2780 cisplatin-resistant cancer cells; experiment: MTT cytotoxicity, cisplatin-resistant A2780; type: cell-based; details: for IC50: A2780 cisplatin-resistant, MTT, 72 h; for Resistant Factor, A2780: cisplatin-resistant over cisplatin-sensitive IC50, A2780
Source text: as §1, §2

[14] = test system: MCF-7 taxol-sensitive cancer cells; experiment: MTT cytotoxicity, taxol-sensitive MCF-7; type: cell-based; details: 72 h
Source text: as §1, §2

[15] = test system: MCF-7 (breast cancer) cells; experiment: MTT cytotoxicity assay, MCF-7; type: cell-based; details: MCF-7, MTT, 72 h
Procedure: as §2

[16] = test system: HepG2 (liver cancer) cells; experiment: MTT cytotoxicity assay, HepG2; type: cell-based; details: 72 h
Procedure: as §2

[17] = test system: H1299 (lung cancer) cells; experiment: MTT cytotoxicity assay, H1299; type: cell-based, human; details: 72 h
Procedure: as §2

[18] = test system: HCT-8 taxol-sensitive cancer cells; experiment: MTT cytotoxicity, taxol-sensitive HCT-8; type: cell-based; details: 72 h
Source text: as §1, §2

[19] = test system: Hep3B (liver cancer) cells; experiment: MTT cytotoxicity assay, Hep 3B; type: cell-based; details: 72 h
Procedure: as §2

[20] = test system: SGC-7901 cisplatin-sensitive cancer cells; experiment: MTT cytotoxicity, cisplatin-sensitive SGC-7901; type: cell-based; details: 72 h
Source text: as §1, §2

[21] = test system: A2780 cisplatin-sensitive cancer cells; experiment: MTT cytotoxicity, cisplatin-sensitive A2780; type: cell-based; details: 72 h
Source text: as §1, §2

[22] = test system: OV2008 (cisplatin-sensitive) cells; experiment: MTT cytotoxicity, OV2008 (cisplatin-sensitive); type: cell-based; details: 72 h, read-out: IC50 value, cisplatin-sensitive cancer, OV2008
Source text: as §1, §2

[23] = test system: HCT116 p53^+/+ colon cancer cells; experiment: MTT cytotoxicity, HCT116 p53+/+; type: cell-based, human; details: 72 h
Source text: as §1, §2

panel of cancer cells = experiment: MTT cytotoxicity assay, summary over the panel of cancer cells; type: cell-based; details: range over the cancer cell lines of Table 1, MTT, 72 h; read-out: mean IC50 values ranged (over the cancer cell lines)
Procedure: as §2

[24] = Pharmacokinetic study (HPLC-MS of blood samples); type: in vivo; details: male C57BL/6 mice
Procedure: Pharmacokinetic study of cobalt complex 2 was performed in male C57BL/6 mice by the dosage of 40 mg/kg. The source of mouse and practice of husbandry were the same as described in the methodology section of LLC-1 Xenograft Tumor experiment. Cobalt complex 2 was diluted in the formula (PEG400: H2O: Ethanol = 6:3:1) and administered by intraperitoneal in a volume of 0.005 mL/g bodyweight. After dosing, blood samples were collected to sodium heparin anticoagulant tube at different time points (5, 15, 30 min, and then 1, 2, 4, 8, 12 and 24 hours); 4 mice were used for each time point. Approximately 200 μL of blood was collected via orbital vein from each anesthetized mouse by isoflurane. Plasma was separated by centrifugation at 3000 g for 10 minutes at 4°C. The plasma was protected and stored at −80°C until analyzed by liquid chromatography-mass spectrometry/mass spectrometry (LC-MS/MS) for quantification.
Plasma samples were thawed at room temperature and then vortexed to ensure sample solution homogeneity. Firstly, a 20 μL aliquot of each plasma sample were loaded into 1.5 mL tube, 100 μL acetonitrile was added, vortexed then centrifuged at 13000 rpm for 10 min. the supernatant was collected. The plasma cobalt complex 2 concentrations were quantified using Thermo HPLC Ultimate 3000 system. The compound in plasma samples were analyzed by using the Agilent Zorbax Eclipse Plus C-18 column with a particle size of 1.8 μm. The parameters of the gradient elution program were applied as follows: mobile phase A (0.1% formic acid in water) and mobile phase B acetonitrile: 0–5.5 min, 20% B; 5.5–7 min, 90% B; 7–10 min, 20% B. The column and autosampler temperature were maintained at 40 and 4 °C, respectively. The gas temperature was set 320 °C with flow rate (0.8 mL/min), gases were set at 10 psi for the nebulizer, capillary, 3500 V.

| Compound | IC50 [1] [µM] | Resistant Factor, OV2008/C13 pair [1] | IC50 [2] [µM] | IC50 [3] [µM] | Resistant Factor, HCT-8 [3] | IC50 [4] [µM] | IC50 [5] [µM] | IC50 [6] [µM] | IC50 [7] [µM] | IC50 [8] [µM] | Resistant Factor, SGC-7901 [8] | Resistant Factor, MCF-7 [9] | IC50 [9] [µM] | IC50 [10] [µM] | IC50 [11] [µM] | Resistant Factor, A549 [11] | IC50 [12] [µM] | Resistant Factor, HCT116 p53-/- vs p53+/+ [12] | IC50 [13] [µM] | Resistant Factor, A2780 [13] | other results |
| --- | --- | --- | --- | --- | --- | --- | --- | --- | --- | --- | --- | --- | --- | --- | --- | --- | --- | --- | --- | --- | --- |
| COc1ccnc(-c2cc(OC)ccn2)c1.COc1ccnc(-c2cc(OC)ccn2)c1.COc1ccnc(-c2cc(OC)ccn2)c1.F[P-](F)(F)(F)(F)F.F[P-](F)(F)(F)(F)F.F[P-](F)(F)(F)(F)F.[Co+3] [complex 5, [Co^III(4,4’-(OMe)2-bpy)3](PF6)3] | 20.3 | 1.45 | 9.31 | 1.04 | 0.24 | 8.71 | 12.8 | 20.6 | 15 | 20.7 | 0.96 | 0.66 | 6.28 | 18.6 | 2.85 | 0.19 | 41.3 | 0.53 | 27 | 1.13 | IC50 [14]: 9.45 µM; IC50 [15]: 10.8 µM; IC50 [16]: 15.4 µM; IC50 [17]: 8.71 µM; IC50 [18]: 4.3 µM; IC50 [19]: 5.33 µM; IC50 [20]: 21.6 µM; IC50 [21]: 24 µM; IC50 [22]: 14 µM; IC50 [23]: 77.8 µM |
| CCCCCCCCCc1ccnc(-c2cc(CCCCCCCCC)ccn2)c1.CCCCCCCCCc1ccnc(-c2cc(CCCCCCCCC)ccn2)c1.CCCCCCCCCc1ccnc(-c2cc(CCCCCCCCC)ccn2)c1.F[P-](F)(F)(F)(F)F.F[P-](F)(F)(F)(F)F.F[P-](F)(F)(F)(F)F.[Co+3] [complex 6, [Co^III(4,4’-(C9H19)2-bpy)3](PF6)3] | 92.6 | 1.87 | 24.2 | 41.1 | 0.73 | 10.4 | 21.3 | 40.2 | 54.3 | 35.9 | 0.99 | 0.39 | 11.1 | 82.8 | 2.6 | 0.05 | 34.1 | 0.93 | 29.1 | 0.96 | IC50 (panel of cancer cells): 10.4 to 82.8 µM; IC50 [14]: 28.5 µM; IC50 [15]: 37.4 µM; IC50 [16]: 26 µM; IC50 [17]: 26.7 µM; IC50 [18]: 56.4 µM; IC50 [19]: 54.1 µM; IC50 [20]: 36.3 µM; IC50 [21]: 30.2 µM; IC50 [22]: 49.4 µM; IC50 [23]: 36.5 µM |
| Cc1ccnc(-c2cc(C)ccn2)c1 [Me2-bpy] |  |  |  |  |  |  |  |  |  |  |  |  |  |  |  |  |  |  |  |  | species detected in blood samples by HPLC-MS ([24]; 40 mg/kg intraperitoneal of complex 2, 5 min to 24 hours): only the free ligand of Me2-bpy was detected; free ligand signal (m/z 185.1071) in samples after 2-hour time interval ([24]; 40 mg/kg intraperitoneal of complex 2, after 2 hours): very weak or no detectable signal |
